In US9850283B2, “Macrocyclic inhibitors of the PD-1/PD-L1 and CD80(B7-1)/PD-L1 protein/protein interactions” (BRISTOL-MYERS SQUIBB COMPANY, priority 2013, dated 2017):
Positions of bridges follow the written chain, without caps; N, C: chain ends. Non-standard residues stand in square brackets, D forms with d. Residues, ends and D or L forms follow the SMILES beside them. Hyp = O=C(O)[C@@H]1C[C@@H](O)CN1; NMeNle = CCCC[C@H](NC)C(=O)O; NMeA = CN[C@@H](C)C(=O)O; Dab = NCC[C@H](N)C(=O)O; Sar = CNCC(=O)O

Tests used:
Human PD-L1/PD-1 = target: T1, Human PD-L1/PD-1 (Homo sapiens, UniProt Q9NZQ7); experiment: HTRF PD-1-Ig/PD-L1-His binding assay (human PD-L1); conditions: cluster symbol; read-out: HTRF IC50 cluster
T1 construct: made in house; host or cells: HEK293T
How it was run: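 Soluble PD-1-Ig binding to PD-L1-His measured by HTRF in dPBS with 0.1% BSA and 0.05% Tween-20. Detection used europium cryptate anti-Ig antibody (1 nM final) and APC anti-His antibody (20 nM final) added on top of the binding reaction.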

[1] = target: T2, LK35.2-hPD-L1 cells / PE-labeled PD-1-Ig (Homo sapiens, UniProt Q9NZQ7); experiment: LK35.2-hPD-L1 cell binding high-content screening assay; assay type: cell-based; conditions: cell binding assay, cell line not given; cluster symbol; read-out: CBA IC50 cluster
T2 construct: expressed in transfected cells; host or cells: LK35.2 mouse B cell line
How it was run: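 Mouse LK35.2 B cells stably overexpressing human PD-L1 were cultured overnight in RPMI with 10% FCS, then given compound and PE-labeled human PD-1-Ig (1 nM final) for 1 h at 37 °C. After three dPBS washes, bound fluorescence was quantified by high-content imaging.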

T2 sequence (Q9NZQ7 19-290): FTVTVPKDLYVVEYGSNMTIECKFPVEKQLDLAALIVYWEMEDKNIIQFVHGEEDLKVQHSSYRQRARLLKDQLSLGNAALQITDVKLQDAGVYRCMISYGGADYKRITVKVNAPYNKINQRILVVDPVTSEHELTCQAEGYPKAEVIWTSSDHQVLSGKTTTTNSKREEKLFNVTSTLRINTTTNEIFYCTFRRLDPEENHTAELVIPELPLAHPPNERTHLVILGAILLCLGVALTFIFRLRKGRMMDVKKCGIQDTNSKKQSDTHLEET
T1 sequence (Q9NZQ7 with tags, fused parts or gaps): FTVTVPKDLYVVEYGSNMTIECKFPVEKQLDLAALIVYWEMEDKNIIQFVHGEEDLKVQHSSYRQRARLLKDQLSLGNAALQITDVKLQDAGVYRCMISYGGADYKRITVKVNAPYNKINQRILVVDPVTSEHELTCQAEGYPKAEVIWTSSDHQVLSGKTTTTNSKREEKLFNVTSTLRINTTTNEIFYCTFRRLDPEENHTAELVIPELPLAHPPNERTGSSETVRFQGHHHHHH

Row | Structure (SMILES) | IC50 (Human PD-L1/PD-1) [nM] | IC50 [1] [nM]
1 | CCCC[C@H]1C(=O)N(C)[C@@H](CCCC)C(=O)N[C@@H](CCN)C(=O)N[C@H](C(=O)NCC(N)=O)CSCC(=O)N[C@@H](Cc2ccc(O)cc2)C(=O)N(C)[C@@H](C)C(=O)N[C@@H](CC(=O)O)C(=O)N2CCC[C@H]2C(=O)N[C@@H](Cc2cnc[nH]2)C(=O)N[C@@H](CCC(=O)O)C(=O)N2C[C@H](O)C[C@H]2C(=O)N[C@@H](Cc2c[nH]c3ccccc23)C(=O)N[C@@H](CO)C(=O)N[C@@H](Cc2c[nH]c3ccccc23)C(=O)N1C [Example 5029] ({CH2CO}-Y[NMeA]DPHE[Hyp]WSW[NMeNle][NMeNle][Dab]CG-NH2; thioether N-14) | 0.385 to 6.74 | 0.158 to 4.71
2 | CCCC[C@H]1C(=O)N(C)[C@@H](CCCC)C(=O)N[C@@H](CC(=O)O)C(=O)N[C@H](C(=O)NCC(N)=O)CSCC(=O)N[C@@H](Cc2ccccc2)C(=O)N(C)[C@@H](C)C(=O)N[C@@H](CC(N)=O)C(=O)N2CCC[C@H]2C(=O)N[C@@H](Cc2cnc[nH]2)C(=O)N[C@@H](CC(C)C)C(=O)N(C)CC(=O)N[C@@H](Cc2c[nH]c3ccccc23)C(=O)N[C@@H](CO)C(=O)N[C@@H](Cc2c[nH]c3ccccc23)C(=O)N1C [Example 5030] ({CH2CO}-F[NMeA]NPHL[Sar]WSW[NMeNle][NMeNle]DCG-NH2; thioether N-14) | > 30.5 | > 74.3
3 | CCCC[C@H]1C(=O)N(C)[C@@H](CCCC)C(=O)N[C@@H](CCN)C(=O)N[C@H](C(=O)NCC(N)=O)CSCC(=O)N[C@@H](Cc2ccc(O)cc2)C(=O)N(C)[C@@H](C)C(=O)N[C@@H](CC(N)=O)C(=O)N2CCC[C@H]2C(=O)N[C@@H](Cc2cnc[nH]2)C(=O)N[C@@H](CCC(=O)O)C(=O)N2C[C@H](O)C[C@H]2C(=O)N[C@@H](Cc2c[nH]c3ccccc23)C(=O)N[C@@H](CO)C(=O)N[C@@H](Cc2c[nH]c3ccccc23)C(=O)N1C [Example 5031] ({CH2CO}-Y[NMeA]NPHE[Hyp]WSW[NMeNle][NMeNle][Dab]CG-NH2; thioether N-14) | 0.385 to 6.74 | 0.158 to 4.71

Other lines, results leading:

Row | IC50 (Human PD-L1/PD-1) [nM] | IC50 [1] [nM] | Structure (SMILES)
4 | > 30.5 | > 74.3 | CCCC[C@H]1C(=O)N(C)CC(=O)N[C@@H](CCCNC(=N)N)C(=O)N[C@H](C(=O)NCC(N)=O)CSCC(=O)N[C@@H](Cc2ccccc2)C(=O)N(C)[C@@H](C)C(=O)N[C@@H](CC(N)=O)C(=O)N2CCC[C@H]2C(=O)N[C@@H](Cc2cnc[nH]2)C(=O)N[C@@H](CC(C)C)C(=O)N(C)CC(=O)N[C@@H](Cc2c[nH]c3ccccc23)C(=O)N[C@@H](CO)C(=O)N[C@@H](Cc2c[nH]c3ccccc23)C(=O)N1C [Example 5027] (HELM PEPTIDE1{[O=C(C[*:3])[*:2]].F.[meA].N.P.H.L.[Sar].W.S.W.[CCCC[C@@H](C(=O)[*:2])N(C)[*:1]].[Sar].R.C.G.[am]}$PEPTIDE1,PEPTIDE1,1:R3-15:R3$$$V2.0)
5 | 0.385 to 6.74 | 0.158 to 4.71 | CCCC[C@H]1C(=O)N(C)[C@@H](CCCC)C(=O)N[C@@H](CCN)C(=O)N[C@H](C(=O)NCC(N)=O)CSCC(=O)N[C@@H](Cc2ccc(O)cc2)C(=O)N(C)[C@@H](C)C(=O)N[C@@H](CC(N)=O)C(=O)N2CCC[C@H]2C(=O)N[C@@H](Cc2cnc[nH]2)C(=O)N[C@@H](CCC(=O)O)C(=O)N2C[C@H](O)C[C@H]2C(=O)N[C@@H](Cc2c[nH]c3ccccc23)C(=O)N[C@@H](CCN)C(=O)N[C@@H](Cc2c[nH]c3ccccc23)C(=O)N1C [Example 5028] ({CH2CO}-Y[NMeA]NPHE[Hyp]W[Dab]W[NMeNle][NMeNle][Dab]CG-NH2; thioether N-14)
6 | 0.385 to 6.74 | 0.158 to 4.71 | CCCC[C@H]1C(=O)N(C)[C@@H](CCCC)C(=O)N[C@@H](CCN)C(=O)N[C@H](C(=O)NCC(N)=O)CSCC(=O)N[C@@H](Cc2ccc(O)cc2)C(=O)N(C)[C@@H](C)C(=O)N[C@@H](CC(N)=O)C(=O)N2CCC[C@H]2C(=O)N[C@@H](Cc2cnc[nH]2)C(=O)N[C@@H](CC(C)C)C(=O)N2C[C@H](O)C[C@H]2C(=O)N[C@@H](Cc2c[nH]c3ccccc23)C(=O)N[C@@H](CCN)C(=O)N[C@@H](Cc2c[nH]c3ccccc23)C(=O)N1C [Example 5032] ({CH2CO}-Y[NMeA]NPHL[Hyp]W[Dab]W[NMeNle][NMeNle][Dab]CG-NH2; thioether N-14)
